Like-named read-outs stand apart in the source and are kept apart here. Square brackets hold non-standard residues; d marks the D form. Peptide text beside a SMILES is read from it. Nspe(4-Br) = C[C@H](NCC(=O)O)c1ccc(Br)cc1; Nspe = C[C@H](NCC(=O)O)c1ccccc1; Nlys = NCCCCNCC(=O)O
What was measured:
C. auris CBS12373 = experiment: Broth microdilution MIC; format: cell-based, Candida auris
A. baumannii 005 = test system: A. baumannii 005
Experimental: (§1) Briefly, bacteria were suspended in cation-adjusted Mueller–Hinton broth (CAMHB; Oxoid, UK) for antibiotics, or MHB (Oxoid, UK) for peptidomimetics to obtain 5 × 10^5 colony forming unit (CFU) ml^−1. […] Positive controls contained only microbes, and blanks contained only media. Microbial suspensions (100 µl) were added to wells, plates wrapped, and incubated at 37°C, 120 rpm for 16–20 h. After incubation, suspensions were removed, log10 diluted, and plated on Trypticase Soya Agar with phosphatidylcholine and Tween 80 to determine minimum bactericidal or fungicidal concentration (MBC or MFC). […] Geometric mean MIC of the peptoids were calculated to evaluate the broad overview of antimicrobial activity across the pathogens.

P. aeruginosa 216 = test system: P. aeruginosa 216
Experimental: as §1

A. baumannii ATCC 19 606 = test system: A. baumannii ATCC 19 606
Experimental: as §1

En. cloacae 003 = test system: En. cloacae 003
Experimental: as §1

S. aureus 117 = test system: S. aureus 117
Experimental: as §1

E. coli 0010 = test system: E. coli 0010
Experimental: as §1

En. cloacae 001 = test system: En. cloacae 001
Experimental: as §1

K. pneumoniae JIE4212 = test system: K. pneumoniae JIE4212
Experimental: as §1

A. baumannii 007 = test system: A. baumannii 007
Experimental: as §1

A. baumannii 008 = details: 008
Experimental: as §1

En. cloacae 005 = test system: En. cloacae 005
Experimental: as §1

S. aureus 04 = details: 04
Experimental: as §1

A. baumannii 006 = test system: A. baumannii 006
Experimental: as §1

S. aureus 105 = test system: S. aureus 105
Experimental: as §1

K. pneumoniae JIE2709 = test system: K. pneumoniae JIE2709
Experimental: as §1

P. aeruginosa 33 = test system: P. aeruginosa 33
Experimental: as §1

E. coli 005 = test system: E. coli 005
Experimental: as §1

[1] = test system: Enteroc. faecalis NCTC 13 379
Experimental: as §1

K. pneumoniae JIE2713 = test system: K. pneumoniae JIE2713
Experimental: as §1

E. coli 0011 = test system: E. coli 0011
Experimental: as §1

E. coli 0015 = test system: E. coli 0015
Experimental: as §1

S. aureus 38 = test system: S. aureus 38
Experimental: as §1

P. aeruginosa AR-1270 = test system: P. aeruginosa AR-1270
Experimental: as §1

[2] = CBS 12 373, RPMI 1640 with MOPS, 5 × 10^3 CFU ml^−1, ≥90% reduction (≥50% for fluconazole)
[3] = A. baumannii 005, MHB (melimine/Mel4 with 0.2% BSA, 0.01% acetic acid), mean MIC
[4] = P. aeruginosa 216, MHB (melimine/Mel4 with 0.2% BSA, 0.01% acetic acid), mean MIC
[5] = A. baumannii ATCC 19 606, MHB (melimine/Mel4 with 0.2% BSA, 0.01% acetic acid), mean MIC
[6] = En. cloacae 003, MHB (melimine/Mel4 with 0.2% BSA, 0.01% acetic acid), mean MIC
[7] = E. coli 0010, MHB (melimine/Mel4 with 0.2% BSA, 0.01% acetic acid), mean MIC
[8] = En. cloacae 001, MHB (melimine/Mel4 with 0.2% BSA, 0.01% acetic acid), mean MIC
[9] = K. pneumoniae JIE4212, MHB (melimine/Mel4 with 0.2% BSA, 0.01% acetic acid), mean MIC
[10] = A. baumannii 007, MHB (melimine/Mel4 with 0.2% BSA, 0.01% acetic acid), mean MIC
[11] = A. baumannii 006, MHB (melimine/Mel4 with 0.2% BSA, 0.01% acetic acid), mean MIC
[12] = S. aureus 105, MHB (melimine/Mel4 with 0.2% BSA, 0.01% acetic acid), mean MIC
[13] = K. pneumoniae JIE2709, MHB (melimine/Mel4 with 0.2% BSA, 0.01% acetic acid), mean MIC
[14] = E. coli 005, MHB (melimine/Mel4 with 0.2% BSA, 0.01% acetic acid), mean MIC
[15] = Enteroc. faecalis NCTC 13 379, MHB (melimine/Mel4 with 0.2% BSA, 0.01% acetic acid), mean MIC
[16] = K. pneumoniae JIE2713, MHB (melimine/Mel4 with 0.2% BSA, 0.01% acetic acid), mean MIC
[17] = E. coli 0011, MHB (melimine/Mel4 with 0.2% BSA, 0.01% acetic acid), mean MIC
[18] = E. coli 0015, MHB (melimine/Mel4 with 0.2% BSA, 0.01% acetic acid), mean MIC
[19] = P. aeruginosa AR-1270, MHB (melimine/Mel4 with 0.2% BSA, 0.01% acetic acid), mean MIC

C[C@@H](c1ccccc1)N(CC(N)=O)C(=O)CN(C(=O)CN(CCCCN)C(=O)CN(C(=O)CN(C(=O)CN(CCCCN)C(=O)CN(C(=O)CN(C(=O)CN(CCCCN)C(=O)CN(C(=O)CN(C(=O)CNCCCCN)[C@@H](C)c1ccccc1)[C@@H](C)c1ccccc1)[C@@H](C)c1ccccc1)[C@@H](C)c1ccccc1)[C@@H](C)c1ccccc1)[C@@H](C)c1ccccc1)[C@@H](C)c1ccccc1 [TM1] (H-[Nlys][Nspe][Nspe][Nlys][Nspe][Nspe][Nlys][Nspe][Nspe][Nlys][Nspe][Nspe]-NH2)
MIC against C. auris (C. auris CBS12373; [2]): 3.9 µg/mL
MIC against C. auris (C. auris CBS12373; CBS12373): 2.1 µM
MIC of peptidomimetics (A. baumannii 005; 005): 2.1 µM
MIC of peptidomimetics (A. baumannii 005; [3]): 3.9 µg/mL
MIC of peptidomimetics (P. aeruginosa 216; 216): 8.6 µM
MIC of peptidomimetics (P. aeruginosa 216; [4]): 15.6 µg/mL
MIC of peptidomimetics (A. baumannii ATCC 19 606; [5]): 3.9 µg/mL
MIC of peptidomimetics (A. baumannii ATCC 19 606; ATCC 19): 2.1 µM
MIC of peptidomimetics (En. cloacae 003): 34.4 µM
MIC of peptidomimetics (En. cloacae 003; [6]): 62.5 µg/mL
MIC of peptidomimetics (S. aureus 117; 117): 7.8 µg/mL
MIC of peptidomimetics (E. coli 0010; 0010): 8.6 µM
MIC of peptidomimetics (E. coli 0010; [7]): 15.6 µg/mL
MIC of peptidomimetics (En. cloacae 001): 8.6 µM
MIC of peptidomimetics (En. cloacae 001; [8]): 15.6 µg/mL
MIC of peptidomimetics (K. pneumoniae JIE4212; [9]): 15.6 µg/mL
MIC of peptidomimetics (K. pneumoniae JIE4212; K. pneumoniae JIE4212, value in brackets): 8.6 µM
MIC of peptidomimetics (A. baumannii 007; 007): 2.1 µM
MIC of peptidomimetics (A. baumannii 007; [10]): 3.9 µg/mL
MIC of peptidomimetics (A. baumannii 008): 7.8 µg/mL
MIC of peptidomimetics (En. cloacae 005): 8.6 µM
MIC of peptidomimetics (En. cloacae 005; En. cloacae 005, MHB (melimine/Mel4 with 0.2% BSA, 0.01% acetic acid), mean MIC): 15.6 µg/mL
MIC of peptidomimetics (S. aureus 04): 7.8 µg/mL
MIC of peptidomimetics (A. baumannii 006; 006): 2.1 µM
MIC of peptidomimetics (A. baumannii 006; [11]): 3.9 µg/mL
MIC of peptidomimetics (S. aureus 105; 105): 2.1 µM
MIC of peptidomimetics (S. aureus 105; [12]): 3.9 µg/mL
MIC of peptidomimetics (K. pneumoniae JIE2709; [13]): 15.6 µg/mL
MIC of peptidomimetics (K. pneumoniae JIE2709; K. pneumoniae JIE2709, value in brackets): 8.6 µM
MIC of peptidomimetics (P. aeruginosa 33): 15.6 (8.6) µg ml^−1
MIC of peptidomimetics (P. aeruginosa 33; 33): 8.6 µmol/L
MIC of peptidomimetics (E. coli 005; 005): 8.6 µM
MIC of peptidomimetics (E. coli 005; [14]): 15.6 µg/mL
MIC of peptidomimetics [1, 15]: 31.3 µg/mL
MIC of peptidomimetics ([1]; Enteroc. faecalis NCTC 13 379, value in brackets): 17.2 µM
MIC of peptidomimetics (K. pneumoniae JIE2713; [16]): 62.5 µg/mL
MIC of peptidomimetics (K. pneumoniae JIE2713; K. pneumoniae JIE2713, value in brackets): 34.4 µM
MIC of peptidomimetics (E. coli 0011; 0011): 17.2 µM
MIC of peptidomimetics (E. coli 0011; [17]): 31.3 µg/mL
MIC of peptidomimetics (E. coli 0015; 0015): 17.2 µM
MIC of peptidomimetics (E. coli 0015; [18]): 31.3 µg/mL
MIC of peptidomimetics (S. aureus 38; 38): 7.8 µg/mL
MIC of peptidomimetics (P. aeruginosa AR-1270; [19]): 31.3 µg/mL
MIC of peptidomimetics (P. aeruginosa AR-1270; P. aeruginosa AR-1270, value in brackets): 17.2 µM

C[C@@H](c1ccc(Br)cc1)N(CC(N)=O)C(=O)CN(C(=O)CN(CCCCN)C(=O)CN(C(=O)CN(C(=O)CNCCCCN)[C@@H](C)c1ccccc1)[C@@H](C)c1ccc(Br)cc1)[C@@H](C)c1ccccc1 [TM2] (H-[Nlys][Nspe][Nspe(4-Br)][Nlys][Nspe][Nspe(4-Br)]-NH2)
MIC against C. auris (C. auris CBS12373; [2]): 3.9 µg/mL
MIC against C. auris (C. auris CBS12373; CBS12373): 3.6 µM
MIC of peptidomimetics (A. baumannii 005; 005): 7.2 µM
MIC of peptidomimetics (A. baumannii 005; [3]): 7.8 µg/mL
MIC of peptidomimetics (P. aeruginosa 216; 216): 14.5 µM
MIC of peptidomimetics (P. aeruginosa 216; [4]): 15.6 µg/mL
MIC of peptidomimetics (A. baumannii ATCC 19 606; [5]): 31.3 µg/mL
MIC of peptidomimetics (A. baumannii ATCC 19 606; ATCC 19): 29.0 µM
MIC of peptidomimetics (En. cloacae 003): 29.0 µM
MIC of peptidomimetics (En. cloacae 003; [6]): 31.3 µg/mL
MIC of peptidomimetics (S. aureus 117; 117): 7.2 µM
MIC of peptidomimetics (S. aureus 117; S. aureus 117, MHB (melimine/Mel4 with 0.2% BSA, 0.01% acetic acid), mean MIC): 7.8 µg/mL
MIC of peptidomimetics (E. coli 0010; 0010): 58.1 µM
MIC of peptidomimetics (E. coli 0010; [7]): 62.5 µg/mL
MIC of peptidomimetics (En. cloacae 001): 29.0 µM
MIC of peptidomimetics (En. cloacae 001; [8]): 31.3 µg/mL
MIC of peptidomimetics (K. pneumoniae JIE4212; JIE4212): 58.1 µM
MIC of peptidomimetics (K. pneumoniae JIE4212; [9]): 62.5 µg/mL
MIC of peptidomimetics (A. baumannii 007; 007): 29.0 µM
MIC of peptidomimetics (A. baumannii 007; [10]): 31.3 µg/mL
MIC of peptidomimetics (A. baumannii 008): 15.6 µg/mL
MIC of peptidomimetics (En. cloacae 005): 15.6 µg/mL
MIC of peptidomimetics (S. aureus 04): 3.9 µg/mL
MIC of peptidomimetics (A. baumannii 006; 006): 7.2 µM
MIC of peptidomimetics (A. baumannii 006; [11]): 7.8 µg/mL
MIC of peptidomimetics (S. aureus 105; 105): 7.2 µM
MIC of peptidomimetics (S. aureus 105; [12]): 7.8 µg/mL
MIC of peptidomimetics (K. pneumoniae JIE2709; JIE2709): 116.2 µM
MIC of peptidomimetics (K. pneumoniae JIE2709; [13]): 125 µg/mL
MIC of peptidomimetics (P. aeruginosa 33; 33): 29.0 µmol/L
MIC of peptidomimetics (P. aeruginosa 33; P. aeruginosa 33, MHB (melimine/Mel4 with 0.2% BSA, 0.01% acetic acid), mean MIC): 31.3 µg/mL
MIC of peptidomimetics (E. coli 005; 005): 116.2 µM
MIC of peptidomimetics (E. coli 005; [14]): 125 µg/mL
MIC of peptidomimetics [1, 15]: 31.3 µg/mL
MIC of peptidomimetics ([1]; NCTC 13): 29.0 µM
MIC of peptidomimetics (K. pneumoniae JIE2713; JIE2713): 116.2 µM
MIC of peptidomimetics (K. pneumoniae JIE2713; [16]): 125 µg/mL
MIC of peptidomimetics (E. coli 0011; 0011): 58.1 µM
MIC of peptidomimetics (E. coli 0011; [17]): 62.5 µg/mL
MIC of peptidomimetics (E. coli 0015; 0015): 58.1 µM
MIC of peptidomimetics (E. coli 0015; [18]): 62.5 µg/mL
MIC of peptidomimetics (S. aureus 38; 38): 7.2 µM
MIC of peptidomimetics (S. aureus 38; S. aureus 38, MHB (melimine/Mel4 with 0.2% BSA, 0.01% acetic acid), mean MIC): 7.8 µg/mL
MIC of peptidomimetics (P. aeruginosa AR-1270; AR-1270): 29.0 µM
MIC of peptidomimetics (P. aeruginosa AR-1270; [19]): 31.3 µg/mL
